From PubChem BioAssay AID248 (DTP/NCI, 2004)
“And” between values parts separate entries of the source, which are not always exact repeats. Equal entries are not always repeated. Toxic doses and inconclusive results are not listed. Cut-off read from the data, not from the text of the source: active = T/C of 150% or more; inactive = T/C below 125%.

Tested on: L1210 leukemia ip in BDF1 mice, survival T/C
Assay: NCI In Vivo Anticancer Drug Screen. Data for tumor model L1210 Leukemia (intraperitoneal) in B6D2F1 (BDF1) mice
Settings: endpoint: mean survival time, higher = longer survival
Method in brief: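 Tumor was transplanted into mice, which were then dosed with test compound or vehicle alone. Survival was recorded for each group, and the treated figure was expressed relative to the control figure.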

[1] = dose: 100.0 mg/kg/injection, schedule: Q04DX003 (ip), vehicle: saline with Tween-80
[2] = dose: 400.0 mg/kg/injection, schedule: Q04DX003 (ip), vehicle: saline with Tween-80
[3] = dose: 50.0 mg/kg/injection, schedule: Q01DX001 (ip), vehicle: saline
[4] = dose: 100.0 mg/kg/injection, schedule: Q01DX001 (ip), vehicle: saline
[5] = dose: 200.0 mg/kg/injection, schedule: Q01DX001 (ip), vehicle: saline
[6] = dose: 200.0 mg/kg/injection, schedule: Q04DX003 (ip), vehicle: saline with Tween-80
[7] = dose: 100.0 mg/kg/injection, schedule: Q01DX009 (ip), vehicle: Klucel (hydroxypropylcellulose) (HPC)
[8] = dose: 200.0 mg/kg/injection, schedule: Q01DX009 (ip), vehicle: Klucel (hydroxypropylcellulose) (HPC)
[9] = dose: 400.0 mg/kg/injection, schedule: Q01DX009 (ip), vehicle: Klucel (hydroxypropylcellulose) (HPC)

Measured: T/C

COc1cc(OC)c2c(=O)c3ccccc3[nH]c2c1
inactive: [1] 87 % of control | [2] 88 % of control

CCC(=O)NCC(=O)O
inactive: dose: 6.25 mg/kg/injection, schedule: Q01DX009 (ip), vehicle: saline 103 % of control | dose: 6.25 mg/kg/injection, schedule: Q04DX003 (ip), vehicle: saline 96 % of control | dose: 12.5 mg/kg/injection, schedule: Q01DX009 (ip), vehicle: saline 95 % of control | dose: 12.5 mg/kg/injection, schedule: Q04DX003 (ip), vehicle: saline 96 % of control | dose: 25.0 mg/kg/injection, schedule: Q01DX009 (ip), vehicle: saline 92 % of control | dose: 25.0 mg/kg/injection, schedule: Q04DX003 (ip), vehicle: saline 100 % of control

CC1(C)CC(=O)C(C23C=CC2=C(CO)C(=O)OC3)C1 (stereo not drawn)
inactive: dose: 5.0 mg/kg/injection, schedule: Q01DX001 (ip), vehicle: saline 96 % of control | dose: 10.0 mg/kg/injection, schedule: Q01DX001 (ip), vehicle: saline 96 % of control | dose: 20.0 mg/kg/injection, schedule: Q01DX001 (ip), vehicle: saline 98 % of control | dose: 40.0 mg/kg/injection, schedule: Q01DX001 (ip), vehicle: saline 110 % of control

CC1OCCCCO1
inactive: [3] 106 % of control | [4] 102 % of control | dose: 100.0 mg/kg/injection, schedule: Q01DX009 (ip), vehicle: saline 96 % of control and 112 % of control | dose: 100.0 mg/kg/injection, schedule: Q04DX002 (ip), vehicle: saline 108 % of control and 86 % of control | [5] 103 % of control | dose: 200.0 mg/kg/injection, schedule: Q01DX009 (ip), vehicle: saline 102 % of control and 108 % of control | dose: 200.0 mg/kg/injection, schedule: Q04DX002 (ip), vehicle: saline 93 % of control and 100 % of control | dose: 400.0 mg/kg/injection, schedule: Q01DX009 (ip), vehicle: saline 98 % of control and 112 % of control | dose: 400.0 mg/kg/injection, schedule: Q04DX002 (ip), vehicle: saline 93 % of control and 95 % of control

O=C(C=C(C(F)(F)F)C(F)(F)F)/C=C/c1ccccc1
inactive: dose: 1.0 mg/kg/injection, schedule: Q01DX009 (ip), vehicle: other 97 % of control | dose: 2.0 mg/kg/injection, schedule: Q01DX009 (ip), vehicle: other 109 % of control | dose: 2.5 mg/kg/injection, schedule: Q04DX003 (ip), vehicle: other 97 % of control | dose: 3.13 mg/kg/injection, schedule: Q01DX009 (ip), vehicle: other 102 % of control | dose: 4.0 mg/kg/injection, schedule: Q01DX009 (ip), vehicle: other 97 % of control | dose: 5.0 mg/kg/injection, schedule: Q04DX003 (ip), vehicle: other 97 % of control | dose: 10.0 mg/kg/injection, schedule: Q04DX003 (ip), vehicle: other 92 % of control | dose: 12.5 mg/kg/injection, schedule: Q04DX003 (ip), vehicle: other 88 % of control

COc1ccc(Br)cc1/C=N/N=C/c1cc(Br)ccc1OC
inactive: dose: 100.0 mg/kg/injection, schedule: Q01DX009 (ip), vehicle: saline with Tween-80 89 % of control | [1] 111 % of control | dose: 200.0 mg/kg/injection, schedule: Q01DX009 (ip), vehicle: saline with Tween-80 92 % of control | [6] 93 % of control | dose: 400.0 mg/kg/injection, schedule: Q01DX009 (ip), vehicle: saline with Tween-80 94 % of control | [2] 95 % of control

CN(C)CC/C(=N\N=C(N)N)c1ccccc1
inactive: dose: 15.0 mg/kg/injection, schedule: Q01DX Z (ip), vehicle: methylcellulose (MC) 96 % of control | dose: 30.0 mg/kg/injection, schedule: Q01DX Z (ip), vehicle: methylcellulose (MC) 90 % of control | dose: 30.0 mg/kg/injection, schedule: Q01DX Z (oral), vehicle: methylcellulose (MC) 89 % of control | dose: 60.0 mg/kg/injection, schedule: Q01DX Z (ip), vehicle: methylcellulose (MC) 94 % of control | dose: 60.0 mg/kg/injection, schedule: Q01DX Z (oral), vehicle: methylcellulose (MC) 91 % of control

NNC(=O)c1ccc(NC(=S)Nc2ccccc2)cc1
inactive: [7] 93 % of control | [8] 93 % of control | [9] 104 % of control

[O-][N+](Cc1ccccc1)=Nc1ccccc1
inactive: dose: 100.0 mg/kg/injection, schedule: Q01DX001 (ip), vehicle: Klucel (hydroxypropylcellulose) (HPC) 100 % of control | dose: 200.0 mg/kg/injection, schedule: Q01DX001 (ip), vehicle: Klucel (hydroxypropylcellulose) (HPC) 96 % of control | dose: 400.0 mg/kg/injection, schedule: Q01DX001 (ip), vehicle: Klucel (hydroxypropylcellulose) (HPC) 89 % of control

COc1ccc(/C=N\NC(=O)CCCC(=O)N/N=C/c2ccc(OC)c(OC)c2)cc1OC
inactive: [3] 100 % of control | [4] 100 % of control | [5] 93 % of control | dose: 400.0 mg/kg/injection, schedule: Q01DX001 (ip), vehicle: saline 100 % of control

CCCCSP(=O)(Cc1ccccc1)SCCCC
inactive: dose: 12.5 mg/kg/injection, schedule: Q04DX003 (ip), vehicle: Klucel (hydroxypropylcellulose) (HPC) 102 % of control | dose: 25.0 mg/kg/injection, schedule: Q04DX003 (ip), vehicle: Klucel (hydroxypropylcellulose) (HPC) 95 % of control | dose: 50.0 mg/kg/injection, schedule: Q04DX003 (ip), vehicle: Klucel (hydroxypropylcellulose) (HPC) 97 % of control

Cc1ccc(CCCC(CC(=O)O)C(=O)O)cc1 (stereo not drawn)
inactive: dose: 12.5 mg/kg/injection, schedule: Q01DX001 (ip), vehicle: saline with Tween-80 100 % of control | dose: 25.0 mg/kg/injection, schedule: Q01DX001 (ip), vehicle: saline with Tween-80 98 % of control | dose: 50.0 mg/kg/injection, schedule: Q01DX001 (ip), vehicle: saline with Tween-80 88 % of control

Oc1ccc2ccccc2c1/C=N\Nc1ccccn1
inactive: dose: 100.0 mg/kg/injection, schedule: Q04DX002 (ip), vehicle: saline with Tween-80 92 % of control | dose: 200.0 mg/kg/injection, schedule: Q04DX002 (ip), vehicle: saline with Tween-80 92 % of control | dose: 400.0 mg/kg/injection, schedule: Q04DX002 (ip), vehicle: saline with Tween-80 89 % of control

O=S(=O)(O)F
inactive: dose: 50.0 mg/kg/injection, schedule: Q04DX003 (ip), vehicle: saline 96 % of control | [4] 94 % of control | dose: 100.0 mg/kg/injection, schedule: Q04DX003 (ip), vehicle: saline 89 % of control | [5] 94 % of control | dose: 200.0 mg/kg/injection, schedule: Q04DX003 (ip), vehicle: saline 96 % of control

CCOC(=O)C(=N\Nc1ccc(C)c(C)c1)/C(C)=N\NC(N)=S
inactive: dose: 75.0 mg/kg/injection, schedule: Q01DX001 (ip), vehicle: saline 87 % of control | dose: 150.0 mg/kg/injection, schedule: Q01DX001 (ip), vehicle: saline 89 % of control

COCCCNP(=O)(OC)OC
inactive: dose: 100.0 mg/kg/injection, schedule: Q01DX001 (ip), vehicle: acetone 98 % of control | dose: 100.0 mg/kg/injection, schedule: Q04DX003 (ip), vehicle: acetone 98 % of control | dose: 200.0 mg/kg/injection, schedule: Q01DX001 (ip), vehicle: acetone 112 % of control | dose: 200.0 mg/kg/injection, schedule: Q04DX003 (ip), vehicle: acetone 100 % of control | dose: 400.0 mg/kg/injection, schedule: Q01DX001 (ip), vehicle: acetone 105 % of control | dose: 400.0 mg/kg/injection, schedule: Q04DX003 (ip), vehicle: acetone 95 % of control

CCOC(=O)C1=C(C)NC(C)=C(C(=O)OCC)C1c1ccc(Cl)cc1
inactive: [1] 98 % of control | [6] 93 % of control | [2] 88 % of control

CSc1ccc(OC(=O)Nc2ccccc2[N+](=O)[O-])cc1C
inactive: [7] 109 % of control | [8] 94 % of control | [9] 92 % of control
